Source: ChEMBL document CHEMBL6103654, “Design, Biological Characterization, and Discovery of Capromorelin Derivatives as Oral Growth Hormone Secretagogue Receptor Type 1a Agonist for the Treatment of Growth Hormone Deficiency” (J Med Chem, 2025)
The source made the active and inactive calls. The rule behind the calls is not given here.

Tests used:
[1] = Agonist activity at monkey GHSR expressed in CHO cells incubated for 60 min by FLIPR assay; assay type: cell-based; details: Macaca mulatta, 1 h
[2] = Genotoxicity in Salmonella typhimurium TA100 by Ames test; assay type: toxicity; details: salmonella enterica subsp. enterica serovar typhimurium
[3] = Cmax in male dog at 2 mg/kg, po administered as single dose measured after 4 hrs; assay type: ADME, organism-based, Canis lupus familiaris; details: in vivo
[4] = Metabolic stability in mouse liver microsome assessed as hepatic clearance at 1 uM measured upto 60 mins in presence of NADPH by LC-MS/MS analysis; assay type: ADME; details: liver microsomes, read-out: CLH
Rattus norvegicus [5] = test: Induction of growth hormone level in Juvenile Sprague-Dawley rat blood at 0.5 mg/kg, po administered as single dose measured after 1 hr by ELISA method (reference value: 45.2+/-12.5 ng/mL); assay type: functional
[6] = Plasma protein binding in rat assessed as unbound fraction measured after 6 hrs by dialysis method; assay type: ADME, cell-free
Rattus norvegicus [7] = test: Induction of growth hormone level in Juvenile Sprague-Dawley rat blood at 0.1 mg/kg, po administered as single dose measured after 1 hr by ELISA method (reference value: 45.2+/-12.5 ng/mL); assay type: functional
[8] = Metabolic stability in human liver microsome assessed as half life at 1 uM measured upto 60 mins in presence of NADPH by LC-MS/MS analysis; assay type: ADME; details: liver microsomes
[9] = Volume of distribution in male Sprague-Dawley rat at 1 mg/kg, iv administered as single dose measured after 4 hrs; assay type: ADME, organism-based; details: in vivo
[10] = biological target: Voltage-gated inwardly rectifying potassium channel KCNH2 (Homo sapiens, UniProt Q12809); test: Inhibition of human ERG expressed in HEK293 cells by patch clamp assay; assay type: toxicity, cell-based
Voltage-gated inwardly rectifying potassium channel KCNH2, sequence (Q12809 whole entry): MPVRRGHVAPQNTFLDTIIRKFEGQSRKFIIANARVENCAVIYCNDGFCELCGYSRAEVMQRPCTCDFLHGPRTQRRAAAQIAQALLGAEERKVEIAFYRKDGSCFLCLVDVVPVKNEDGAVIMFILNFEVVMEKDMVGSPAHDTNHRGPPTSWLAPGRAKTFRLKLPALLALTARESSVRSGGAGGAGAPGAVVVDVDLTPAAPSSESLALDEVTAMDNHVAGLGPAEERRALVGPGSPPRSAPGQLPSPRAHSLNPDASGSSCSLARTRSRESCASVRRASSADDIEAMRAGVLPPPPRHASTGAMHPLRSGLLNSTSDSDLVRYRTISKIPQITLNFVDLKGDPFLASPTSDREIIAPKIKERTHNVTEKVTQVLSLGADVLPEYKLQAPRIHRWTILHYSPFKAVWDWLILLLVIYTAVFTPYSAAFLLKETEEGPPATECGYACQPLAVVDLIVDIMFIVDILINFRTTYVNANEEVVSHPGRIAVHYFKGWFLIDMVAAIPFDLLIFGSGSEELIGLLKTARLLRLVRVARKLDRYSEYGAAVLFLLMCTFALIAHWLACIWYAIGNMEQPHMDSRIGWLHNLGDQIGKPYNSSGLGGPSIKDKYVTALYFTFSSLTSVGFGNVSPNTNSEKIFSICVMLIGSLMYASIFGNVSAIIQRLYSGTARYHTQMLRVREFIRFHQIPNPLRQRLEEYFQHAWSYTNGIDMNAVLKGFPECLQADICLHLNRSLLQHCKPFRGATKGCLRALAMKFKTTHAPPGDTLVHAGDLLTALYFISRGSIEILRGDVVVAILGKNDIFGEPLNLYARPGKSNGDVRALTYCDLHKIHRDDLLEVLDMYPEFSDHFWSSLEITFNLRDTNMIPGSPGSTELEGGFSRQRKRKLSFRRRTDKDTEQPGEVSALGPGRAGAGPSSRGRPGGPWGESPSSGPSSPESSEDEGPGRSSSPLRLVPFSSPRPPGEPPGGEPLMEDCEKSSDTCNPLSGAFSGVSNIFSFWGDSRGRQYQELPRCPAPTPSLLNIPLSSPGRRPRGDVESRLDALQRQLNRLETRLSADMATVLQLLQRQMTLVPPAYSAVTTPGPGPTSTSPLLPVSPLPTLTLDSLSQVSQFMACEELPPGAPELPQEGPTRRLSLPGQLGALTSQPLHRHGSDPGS

[11] = Metabolic stability in monkey liver microsome assessed as half life at 1 uM measured upto 60 mins in presence of NADPH by LC-MS/MS analysis; assay type: ADME, Macaca mulatta; details: rhesus monkey, liver microsomes
Rattus norvegicus [12] = test: Induction of growth hormone level in Juvenile Sprague-Dawley rat blood at 0.5 mg/kg, po administered as single dose measured after 4 hrs by ELISA method (reference value: 32.5+/-4.5 ng/mL); assay type: functional
[13] = Metabolic stability in monkey liver microsome assessed as intrinsic clearance at 1 uM measured upto 60 mins in presence of NADPH by LC-MS/MS analysis; assay type: ADME, Macaca mulatta; details: rhesus monkey, liver microsomes, read-out: CLH
[14] = Tmax in male Sprague-Dawley rat at 2 mg/kg, po administered as single dose measured after 4 hrs; assay type: ADME, organism-based; details: in vivo
[15] = Elimination half life in male Sprague-Dawley rat at 1 mg/kg, iv administered as single dose measured after 4 hrs; assay type: ADME, organism-based; details: in vivo, read-out: beta t1/2 (converted)
[16] = Volume of distribution in male dog at 0.5 mg/kg, iv administered as single dose measured after 4 hrs; assay type: ADME, organism-based, Canis lupus familiaris; details: in vivo
Rattus norvegicus [17] = test: Induction of growth hormone level in Juvenile Sprague-Dawley rat blood at 0.5 mg/kg, po administered as single dose measured immediately by ELISA method (reference value: 28.5+/-8.7 ng/mL); assay type: functional
CHO = test: Agonist activity at dog GHSR expressed in CHO cells at maximum concentration incubated for 60 min by FLIPR assay relative to control; assay type: cell-based; details: Canis lupus familiaris, filed as agonist
Rattus norvegicus [18] = test: Induction of growth hormone level in adult Sprague-Dawley rat blood at 0.2 mg/kg, po administered as single dose measured after 20 mins by ELISA method (reference value: 4.9+/-1.1 ng/mL); assay type: functional
Rattus norvegicus [19] = test: In vivo agonist activity at GSHR in Sprague-Dawley rat assessed as increase in body weight at 10 to 100 mg/kg, po administered once daily for 14 days; assay type: functional, organism-based; details: dose 10-100 mg/kg, time 14.0 day
Rattus norvegicus [20] = test: Induction of growth hormone level in Juvenile Sprague-Dawley rat blood at 0.5 mg/kg, po administered as single dose measured after 2 hrs by ELISA method (reference value: 26.5+/-7.3 ng/mL); assay type: functional
[21] = Volume of distribution in male mouse at 1 mg/kg, iv administered as single dose measured after 4 hrs; assay type: ADME, organism-based; details: in vivo
[22] = Half life in male monkey at 2 mg/kg, po administered as single dose measured after 4 hrs; assay type: ADME, organism-based, Macaca mulatta; details: rhesus monkey, in vivo
[23] = Metabolic stability in rat liver microsome assessed as hepatic clearance at 1 uM measured upto 60 mins in presence of NADPH by LC-MS/MS analysis; assay type: ADME; details: liver microsomes, read-out: CLH
[24] = Toxicity in Sprague-Dawley rat assessed as effect on hepatic cords at 10 to 100 mg/kg, po administered once daily for 14 days; assay type: organism-based; details: in vivo, 336 h, dose 10-100 mg/kg, time 14 day
Rattus norvegicus [25] = test: Induction of growth hormone level in adult Sprague-Dawley rat blood at 0.1 mg/kg, po administered as single dose measured after 20 mins by ELISA method (reference value: 4.9+/-1.1 ng/mL); assay type: functional
Rattus norvegicus [26] = test: Induction of growth hormone level in Juvenile Sprague-Dawley rat blood at 0.2 mg/kg, po administered as single dose measured immediately by ELISA method (reference value: 28.5+/-8.7 ng/mL); assay type: functional
Rattus norvegicus [27] = test: Induction of growth hormone level in Juvenile Sprague-Dawley rat blood at 0.1 mg/kg, po administered as single dose measured after 10 mins by ELISA method (reference value: 23.2+/-5.6 ng/mL); assay type: functional
[28] = biological target: Growth hormone secretagogue receptor type 1 (Rattus norvegicus, UniProt O08725); test: Agonist activity at rat GHSR expressed in CHO cells incubated for 60 min by FLIPR assay; assay type: functional, cell-based
Growth hormone secretagogue receptor type 1, sequence (O08725 whole entry): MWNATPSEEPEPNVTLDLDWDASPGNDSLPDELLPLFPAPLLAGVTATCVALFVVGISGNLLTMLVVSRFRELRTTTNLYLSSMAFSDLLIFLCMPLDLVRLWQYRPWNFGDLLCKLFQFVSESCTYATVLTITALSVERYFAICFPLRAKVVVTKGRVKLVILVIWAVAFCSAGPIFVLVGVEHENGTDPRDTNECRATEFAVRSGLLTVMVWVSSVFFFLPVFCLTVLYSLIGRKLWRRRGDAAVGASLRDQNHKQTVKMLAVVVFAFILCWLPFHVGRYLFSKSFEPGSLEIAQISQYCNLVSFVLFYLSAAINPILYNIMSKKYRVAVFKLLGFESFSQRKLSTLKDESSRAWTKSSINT

EC50 [1]: 0.046 nM
Cmax [3]: 200 ng/mL
CLint scaled at 1 µM [4]: 1370 mL/min/kg
fraction unbound at 6 h [6]: 0.673
half-life at 1 µM [8]: 11.3 min
Vd [9]: 2.65 L/kg
half-life at 1 µM [11]: 3.1 min
microsomal CLint at 1 µM [13]: 451 µL/min/mg
Tmax [14]: 15 min
half-life [15]: 64.2 min
Vd [16]: 2.88 L/kg
Vd [21]: 2.94 L/kg
half-life [22]: 61.2 min
CLint scaled at 1 µM [23]: 342 mL/min/kg
EC50 [28]: 0.007 nM
SMILES: CC(C)(N)C(=O)N[C@H](COCc1ccccc1)C(=O)N1CCC2=NN(C3CC3)C(=O)[C@]2(Cc2ccccc2)C1
Activity [2]: Non-toxic
Activity (Rattus norvegicus [5]): 27.2 ng/mL
Activity (Rattus norvegicus [7]): 37.8 ng/mL
IC50 [10]: > 30000 nM
Activity (Rattus norvegicus [12]): 56.7 ng/mL
Activity (Rattus norvegicus [17]): 42.8 ng/mL
Activity (CHO): 124%
Activity (Rattus norvegicus [18]): 73.2 ng/mL
Activity (Rattus norvegicus [19]): Active
Activity (Rattus norvegicus [20]): 34.4 ng/mL
Activity [24]: Non-toxic
Activity (Rattus norvegicus [25]): 74.5 ng/mL
Activity (Rattus norvegicus [26]): 33.4 ng/mL
Activity (Rattus norvegicus [27]): 168.5 ng/mL
